According to publication PMC6556873, “Rapid Covalent-Probe Discovery by Electrophile-Fragment Screening” (Journal of the American Chemical Society, 2019):
Where two headings read alike, the source gives them in different places.

Tests used:
in vitro [1] = test: in vitro; design: species or system CCD841, HEK293; settings: human, hb2 cells, read-out: HB-2 Cells Viability (%)
in vitro [2] = test: in vitro; design: species or system HB2, CCD841; settings: human, hek293 cells
BSA = target: T1, BSA (Bos taurus, UniProt P02769); design: Intact protein LC/MS covalent labelling, fragments in pools of five, 200 uM each, 4 °C; settings: 24 h, 4 °C, pool of five; 200 µM; covalent
T1 construct: gene ALB

NNMT (hNNMT) = target: T2, NNMT (hNNMT) (Homo sapiens, UniProt P40261); design: Intact protein LC/MS covalent labelling, fragments in pools of five, 200 uM each, 4 °C; settings: 24 h, 4 °C, pool of five; 200 µM; covalent
T2 construct: wild type, N-terminal His6 tag kept (no cleavage described), E. coli, construct 31248 Da
T2 sequence (P40261 1-264): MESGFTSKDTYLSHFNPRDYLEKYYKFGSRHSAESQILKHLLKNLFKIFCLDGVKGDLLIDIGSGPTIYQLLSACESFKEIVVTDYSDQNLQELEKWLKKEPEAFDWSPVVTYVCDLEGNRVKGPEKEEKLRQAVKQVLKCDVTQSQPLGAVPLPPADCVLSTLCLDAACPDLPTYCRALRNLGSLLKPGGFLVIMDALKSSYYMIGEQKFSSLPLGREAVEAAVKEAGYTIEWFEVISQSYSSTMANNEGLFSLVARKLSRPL

NUDT7 = target: T3, NUDT7 (Homo sapiens, UniProt P0C024); design: Intact protein LC/MS covalent labelling, fragments in pools of five, 200 uM each, 4 °C; settings: 24 h, 4 °C, pool of five; 200 µM; covalent
T3 construct: residues 14-235, E. coli, pNIC28-Bsa4, N-terminal His6 tag removed by TEV, construct 26672 Da

PCAF = target: T4, PCAF (Homo sapiens, UniProt Q92831); design: Intact protein LC/MS covalent labelling, fragments in pools of five, 200 uM each, 4 °C; settings: 24 h, 4 °C, pool of five; 200 µM; covalent
T4 construct: gene KAT2B

in vitro [3] = test: in vitro; design: species or system HB2, HEK293; settings: human, ccd841 cells
OTUB2 (OTUB2A) = target: T5, OTUB2 (OTUB2A) (Homo sapiens, UniProt Q96DC9); design: Intact protein LC/MS covalent labelling, fragments in pools of five, 200 uM each, 4 °C; settings: 24 h, 4 °C, pool of five; 200 µM; covalent
T5 construct: full length residues 1-234, E. coli BL21(DE3)-R3, His tag removed by TEV, construct 27312 Da
T5 sequence (Q96DC9 1-234): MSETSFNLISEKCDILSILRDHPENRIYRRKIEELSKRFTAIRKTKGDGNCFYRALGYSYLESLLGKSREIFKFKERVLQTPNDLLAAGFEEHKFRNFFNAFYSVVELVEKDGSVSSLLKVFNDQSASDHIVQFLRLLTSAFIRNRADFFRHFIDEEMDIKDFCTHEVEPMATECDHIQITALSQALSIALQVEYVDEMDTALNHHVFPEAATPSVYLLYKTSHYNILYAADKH

T1 sequence (P02769 whole entry, the tested form may be a part): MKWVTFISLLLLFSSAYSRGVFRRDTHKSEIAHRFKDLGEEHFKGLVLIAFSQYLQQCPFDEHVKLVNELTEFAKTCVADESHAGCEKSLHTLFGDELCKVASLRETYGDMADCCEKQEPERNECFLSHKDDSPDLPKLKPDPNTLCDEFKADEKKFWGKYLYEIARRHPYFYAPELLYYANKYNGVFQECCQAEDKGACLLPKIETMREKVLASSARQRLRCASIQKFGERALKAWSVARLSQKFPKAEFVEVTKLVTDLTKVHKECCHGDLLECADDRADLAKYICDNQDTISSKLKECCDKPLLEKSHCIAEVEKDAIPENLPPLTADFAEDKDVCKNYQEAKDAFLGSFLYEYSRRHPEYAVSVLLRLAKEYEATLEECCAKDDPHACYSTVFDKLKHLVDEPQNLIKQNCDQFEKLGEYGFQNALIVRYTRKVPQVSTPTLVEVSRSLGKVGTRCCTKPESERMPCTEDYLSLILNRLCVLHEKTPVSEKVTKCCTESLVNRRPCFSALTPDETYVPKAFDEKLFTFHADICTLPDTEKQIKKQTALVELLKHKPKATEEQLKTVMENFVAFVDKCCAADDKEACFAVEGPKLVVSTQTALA
T4 sequence (Q92831 whole entry, the tested form may be a part): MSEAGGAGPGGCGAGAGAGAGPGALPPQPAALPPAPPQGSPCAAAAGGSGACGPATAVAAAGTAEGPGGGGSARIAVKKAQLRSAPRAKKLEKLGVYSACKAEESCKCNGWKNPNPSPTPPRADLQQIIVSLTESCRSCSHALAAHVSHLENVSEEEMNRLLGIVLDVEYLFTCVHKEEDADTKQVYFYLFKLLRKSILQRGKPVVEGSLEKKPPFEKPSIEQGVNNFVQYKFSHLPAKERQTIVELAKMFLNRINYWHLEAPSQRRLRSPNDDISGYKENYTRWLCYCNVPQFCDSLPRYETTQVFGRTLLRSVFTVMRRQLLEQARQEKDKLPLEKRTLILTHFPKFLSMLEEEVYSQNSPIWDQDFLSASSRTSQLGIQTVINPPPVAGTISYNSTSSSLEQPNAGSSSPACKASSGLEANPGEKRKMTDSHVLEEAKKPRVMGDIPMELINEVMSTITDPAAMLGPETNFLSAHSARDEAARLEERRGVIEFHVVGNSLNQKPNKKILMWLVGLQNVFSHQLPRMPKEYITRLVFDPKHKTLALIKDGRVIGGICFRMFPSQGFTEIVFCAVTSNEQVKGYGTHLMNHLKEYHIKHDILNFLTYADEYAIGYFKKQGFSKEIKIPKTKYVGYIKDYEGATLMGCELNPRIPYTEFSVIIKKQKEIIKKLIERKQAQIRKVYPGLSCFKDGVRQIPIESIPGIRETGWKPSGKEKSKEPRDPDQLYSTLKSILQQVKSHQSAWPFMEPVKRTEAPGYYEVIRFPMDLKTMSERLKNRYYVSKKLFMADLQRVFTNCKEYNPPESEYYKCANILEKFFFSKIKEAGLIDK
T3 sequence (P0C024 14-235): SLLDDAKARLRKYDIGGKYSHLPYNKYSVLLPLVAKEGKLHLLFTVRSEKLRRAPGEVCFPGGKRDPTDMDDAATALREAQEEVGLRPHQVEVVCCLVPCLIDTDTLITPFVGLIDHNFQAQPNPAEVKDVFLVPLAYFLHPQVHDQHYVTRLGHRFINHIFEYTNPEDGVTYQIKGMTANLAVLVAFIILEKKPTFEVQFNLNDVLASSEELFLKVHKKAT

SMILES	BSA (BSA)	NNMT (NNMT (hNNMT))	NUDT7 (NUDT7)	PCAF (PCAF)	OTUB2 (OTUB2 (OTUB2A))	viability at 48 h, 10 µM (in vitro [1]) [%]	viability at 48 h, 10 µM (in vitro [2]) [%]	viability at 48 h, 10 µM (in vitro [3]) [%]
C=CC(=O)N1CCNC(=O)C1c1cccs1 (stereo not drawn) [PCM-0102597]	0	0	0	0	–	103	81	113
C=CC(=O)NCc1ccc2c(c1)C(C)(C)C(=O)N2 [PCM-0102570]	0	0.21	0	0	–	107	92	110
C=CC(=O)Nc1ccc(N(C)C)cc1 [PCM-0102461]	0	0.2	0	0	–	102	81.3	111
O=C(CCl)Nc1ccc(N2CCCCC2)cc1 [PCM-0102612]	0	–	0	0	0.37	41.7	57.2	55.2
CC(NC(=O)CCl)c1ccccc1Cl (stereo not drawn) [PCM-0102110]	0	–	0	0	0.25	70.8	65.7	74.2
O=C1CN(C(=O)CCl)c2ccccc2N1 [PCM-0102362]	0	–	0	0	0	79.8	61.4	92.6
O=C(CCl)Nc1cc2c(cc1Cl)OCO2 [PCM-0102209]	0	–	0.13	0	0.27	58.1	47.1	70.7
O=C(CCl)NC(=O)Nc1ccc2c(c1)OCCO2 [PCM-0102614]	0	–	0.23	0	0.27	88.7	80.3	83.6
O=C(CCl)Nc1cccc(F)c1 [PCM-0102364]	0	–	0.09	0	0	25	5.9	45.7
Cc1cccc(N2CCN(C(=O)CCl)CC2)c1.Cl [PCM-0102185]	0	–	0.05	0	0	13.1	35.9	65.7
C=CC(=O)Nc1ccc2c(c1)OCO2 [PCM-0102347]	0	–	0	0	0	109	79.7	106
C=CC(=O)NC1CCOC2(CCS(=O)(=O)C2)C1 (stereo not drawn) [PCM-0102645]	0	–	0	0	0	102	110	115
Cc1ccc(C(=O)O)cc1NC(=O)CCl [PCM-0102624]	0	–	0	0	0	102	86.2	108
Cc1cc(NC(=O)CCl)n(-c2ccc(F)cc2)n1 [PCM-0102665]	0	–	0	0	0.53	57	20.6	67.6
O=C(CCl)Nc1cc(C(F)(F)F)ccc1-n1cncn1 [PCM-0102218]	0	–	0.28	0	0	42.2	17.7	63.7
CC(=O)Nc1ccc(NC(=O)CCl)cc1 [PCM-0102114]	0	–	0	0	0	69.9	56	57.7
C=CC(=O)NCc1ccon1 [PCM-0102482]	0	–	0	0	0	98.9	90.3	92.9
C=CC(=O)N1CCCc2[nH]c3ccc(F)cc3c2C1 [PCM-0102485]	0.12	–	0	0	0	95.2	105	106
O=C(CCl)NC(=O)NCc1ccccc1 [PCM-0102122]	0	–	0	0	0	54.8	65.5	76.9
N#CC1(N2CCN(C(=O)CCl)CC2)CCCCC1 [PCM-0102303]	0	–	0	0	0.07	103	91.6	107

More lines, main results first:

BSA (BSA)	NNMT (NNMT (hNNMT))	NUDT7 (NUDT7)	PCAF (PCAF)	OTUB2 (OTUB2 (OTUB2A))	SMILES	viability at 48 h, 10 µM (in vitro [1]) [%]	viability at 48 h, 10 µM (in vitro [2]) [%]	viability at 48 h, 10 µM (in vitro [3]) [%]
0	0	0.12	0	–	O=C(CCl)Nc1cc2c(cc1Cl)C(=O)c1ccccc1C2=O [PCM-0102757]	1.4	22.5	58.4
0	0.53	0.14	0	–	O=C(CCl)Nc1ccc(N2CCCCC2)nc1 [PCM-0102812]	32.5	4.4	61.5
0	–	0	0	0	O=C(CCl)NC(=O)c1cccc2ccccc12 [PCM-0102694]	101	111	112
0.1	–	0	0	0	C=CC(=O)NCC1=CCCCC1 [PCM-0102726]	105	89.9	99.1
0	–	0	0	0.1	O=C(CCl)N1CCN(Cc2ccccc2)C1=O [PCM-0102919]	102	90.9	96.2
0	–	0.41	0	0	C=CC(=O)Nc1ccccc1[N+](=O)[O-] [PCM-0102742]	41.2	65.8	66.4
0	–	0.35	0	0	C=CC(=O)NC(=O)NCc1ccccc1 [PCM-0102834]	23	17.9	57.4
0	–	0.37	0	0.21	O=C(CCl)Nc1nc(-c2ccc(F)cc2)cs1 [PCM-0102809]	5.1	1.7	63.1
0	–	0	0	0	C=CC(=O)NCc1cccc(C(F)(F)F)c1 [PCM-0102825]	97.4	82.3	107
0	–	0	0	0	CC1CCN(C(=O)CCl)CC1 [PCM-0102945]	103	88.3	108
